Assays:
[1] = for response of the electrode of the invention to the test compound (depression of capacitance peaks): 0.5 μmol dm^−3 in 0.1M KCl
Procedure: The HMDE and the electrode of the invention were compared side-by-side in a static cell configuration. All experiments were carried out in 0.1 M potassium chloride solution. Measurements were taken at 75 Hz between −0.4 to −1.15 V with 4.95 mV rms at a scan rate of 5 mV
This Example compares a HMDE electrode with an electrode as produced in accordance with Example 3, both coated with a monolayer film of 1,2-dioleoyl-sn-glycero-3-phosphocholine (DOPC), new layers of which were deposited between consecutive scans. Experiments were performed in 0.1M Kcl. A negative going ‘forward’ potential scan was performed between −0.4 V and −1.15 V, and then followed immediately by a positive going ‘reverse’ scan from −1.15 V to −0.4 V with 4.95 mV rms at a scan rate of 5 mVs^−1.

[2] = AC voltammetry (capacitance-potential scans) of DOPC monolayer on hanging mercury drop electrode (HMDE) with analyte in electrolyte
Procedure: The HMDE was based on using a capillary with a diameter of 0.1 mm so as to provide a surface area for the mercury drop about the same as the surface area of the mercury in the electrode in accordance with the invention.
Experiments were performed in 0.1M Kcl.

[3] = Pt/Hg electrode, DOPC monolayer, compared with HMDE

sensitivity converted to ppb ([1]; assuming a density for the solution of 1 g per ml) | SMILES | response of the electrode of the invention to the test compound (depression of capacitance peaks) [1, 3] | response of the electrode of the invention to the test compound ([1]; 5 μmol dm^−3, Pt/Hg electrode, DOPC monolayer, compared with HMDE) | response of the HMDE to the test compound ([2]; 5 μmol dm^−3) | response of the HMDE to the test compound ([2]; 0.5 μmol dm^−3 in 0.1M KCl)
 | NC(=O)c1cc[n+](COC[n+]2ccccc2C=NO)cc1 [H16] | far greater response | slightly larger response | large response | 
approximately 18 ppb | CN(C)CCCN1c2ccccc2Sc2ccc(Cl)cc21 [chlorpromazine] |  |  |  | 
 | CC(CN1c2ccccc2Sc2ccccc21)N(C)C (stereo not drawn) [promethazine] | stronger response (greater depression of the peaks) |  |  | show response

Source: US20160377571A1, “BIOSENSOR” (University of Leeds, priority 2007, published 2016)
